Reference: ChEMBL document CHEMBL3045594, “Synthesis and evaluation of substituted 5-(3-chloro-2-oxo-4-phenylazetidin-1-ylamino)pyrimidine-2,4,6(1H,3H,5H)-triones against pentylenetetrazole-induced convulsant in mice” (Med Chem Res, 2012)

Tests used:
Mus musculus [1] = experiment: Acute toxicity in Mus musculus (mouse) assessed as behavioral changes at 1000 mg/kg, ip; format: organism-based; parameters: dose 1000 mg/kg, route intraperitoneal; details: in vivo
Mus musculus [2] = experiment: Anticonvulsant activity in Mus musculus (mouse) subcutaneous PTZ-induced seizure assessed as reduced glutathione level per mg of protein at 40 mg/kg, ip administered 30 min before PTZ challenge by Ellman method; format: functional
Mus musculus [3] = experiment: Anticonvulsant activity in Mus musculus (mouse) subcutaneous PTZ-induced seizure assessed as reduced nitrite level per mg of protein at 40 mg/kg, ip administered 30 min before PTZ challenge by Griess reaction; format: functional
Mus musculus [4] = experiment: Anticonvulsant activity in Mus musculus (mouse) subcutaneous PTZ-induced seizure assessed as carbonyl protein level at 20 mg/kg, ip administered 30 min before PTZ challenge; format: functional
Mus musculus [5] = experiment: Anticonvulsant activity in Mus musculus (mouse) subcutaneous PTZ-induced seizure assessed as reduced nitrite level per mg of protein at 20 mg/kg, ip administered 30 min before PTZ challenge by Griess reaction; format: functional
Mus musculus [6] = experiment: Anticonvulsant activity in Mus musculus (mouse) subcutaneous PTZ-induced seizure assessed as malondialdehyde level at 40 mg/kg, ip administered 30 min before PTZ challenge by TBARS assay; format: functional
Mus musculus [7] = experiment: Anticonvulsant activity in Mus musculus (mouse) assessed as protection against subcutaneous PTZ-induced seizure at 20 mg/kg, ip administered 30 min before PTZ challenge; format: functional
Mus musculus [8] = experiment: Anticonvulsant activity in Mus musculus (mouse) assessed as protection against subcutaneous PTZ-induced seizure at 40 mg/kg, ip administered 30 min before PTZ challenge; format: functional
Mus musculus [9] = experiment: Anticonvulsant activity in Mus musculus (mouse) subcutaneous PTZ-induced seizure assessed as carbonyl protein level at 40 mg/kg, ip administered 30 min before PTZ challenge; format: functional
Mus musculus [10] = experiment: Anticonvulsant activity in Mus musculus (mouse) subcutaneous PTZ-induced seizure assessed as malondialdehyde level at 20 mg/kg, ip administered 30 min before PTZ challenge by TBARS assay; format: functional
Mus musculus [11] = experiment: Acute toxicity in Mus musculus (mouse) at 100 to 200 mg/kg, ip; format: organism-based; parameters: dose 100-200 mg/kg, route intraperitoneal; details: in vivo
[12] = Acute toxicity in Mus musculus (mouse) assessed as mortality at 1000 mg/kg, ip; format: organism-based; parameters: dose 1000 mg/kg, route intraperitoneal; details: in vivo, read-out: Activity
Mus musculus [13] = experiment: Anticonvulsant activity in Mus musculus (mouse) subcutaneous PTZ-induced seizure assessed as reduced glutathione level per mg of protein at 20 mg/kg, ip administered 30 min before PTZ challenge by Ellman method; format: functional
Mus musculus [14] = experiment: Anticonvulsant activity in Mus musculus (mouse) subcutaneous PTZ-induced seizure assessed as malondialdehyde level at 80 mg/kg, ip administered 30 min before PTZ challenge by TBARS assay; format: functional
Mus musculus [15] = experiment: Anticonvulsant activity in Mus musculus (mouse) assessed as protection against subcutaneous PTZ-induced seizure at 80 mg/kg, ip administered 30 min before PTZ challenge; format: functional
Mus musculus [16] = experiment: Anticonvulsant activity in Mus musculus (mouse) subcutaneous PTZ-induced seizure assessed as reduced nitrite level per mg of protein at 80 mg/kg, ip administered 30 min before PTZ challenge by Griess reaction; format: functional
Mus musculus [17] = experiment: Anticonvulsant activity in Mus musculus (mouse) subcutaneous PTZ-induced seizure assessed as reduced glutathione level per mg of protein at 80 mg/kg, ip administered 30 min before PTZ challenge by Ellman method; format: functional
Mus musculus [18] = experiment: Anticonvulsant activity in Mus musculus (mouse) subcutaneous PTZ-induced seizure assessed as carbonyl protein level at 80 mg/kg, ip administered 30 min before PTZ challenge; format: functional

| SMILES | Activity (Mus musculus [1]) | Activity (Mus musculus [2]) [µmol] | Activity (Mus musculus [3]) [µmol] | Activity (Mus musculus [4]) [nmol/mg] | Activity (Mus musculus [5]) [µmol] | Activity (Mus musculus [6]) [nmol/mg] | Activity (Mus musculus [7]) [%] | Activity (Mus musculus [8]) [%] | Activity (Mus musculus [9]) [nmol/mg] | Activity (Mus musculus [10]) [nmol/mg] | Activity (Mus musculus [11]) | mortality [12] [%] | Activity (Mus musculus [13]) [µmol] | Activity (Mus musculus [14]) [nmol/mg] | Activity (Mus musculus [15]) [%] | Activity (Mus musculus [16]) [µmol] | Activity (Mus musculus [17]) [µmol] | Activity (Mus musculus [18]) [nmol/mg] |
| --- | --- | --- | --- | --- | --- | --- | --- | --- | --- | --- | --- | --- | --- | --- | --- | --- | --- | --- |
| O=C1NC(=O)C(NN2C(=O)C(Cl)C2c2ccccc2)C(=O)N1 (centres undefined) | Toxic | 0.036 | 0.48 | 30.74 | 0.46 | 44.04 | 16 | 16 | 29.61 | 48.36 | Non-toxic | 70 | 0.031 |  |  |  |  |  |
| COc1ccc(C2C(Cl)C(=O)N2NC2C(=O)NC(=O)NC2=O)cc1 (centres undefined) | Toxic | 0.047 | 0.49 | 27.53 | 0.47 | 42.91 | 33 | 66 | 25.94 | 47.11 | Non-toxic | 70 | 0.043 |  |  |  |  |  |
| COc1cc(C2C(Cl)C(=O)N2NC2C(=O)NC(=O)NC2=O)ccc1O (centres undefined) | Toxic | 0.084 | 0.54 | 21.68 | 0.53 | 30.68 | 66 | 83 | 20.48 | 35.19 | Non-toxic | 70 | 0.081 |  |  |  |  |  |
| CCCC(CCC)C(=O)[O-].[Na+] [VALPROATE SODIUM] |  |  |  |  |  |  |  |  |  |  |  |  |  | 28.13 | 100 | 0.54 | 0.089 | 19.06 |
